Experimental data: US20050203176A1, “Carbamates as HIV anti-viral agents” (WYETH, priority 2004, published 2005)
Like-named read-outs stand apart in the source and are kept apart here.

Tests used:
[1] = target: T1, HIV reverse transcriptase (RNase H activity) (Human immunodeficiency virus type 1 group M subtype B, UniProt P04585); test: RNase H / HIV reverse transcriptase inhibition (fluorescent probe-target hybrid assay); type: biochemical; details: inhibition of HIV reverse transcriptase / RNase H, Table I
T1 construct: HIV reverse transcriptase has an RNase H domain at the C-terminus of its p66 subunit
From the text: Preferably, the RNase H/HIV reverse transcriptase modulatory activity of the compounds of the present invention may be determined by the methods described in copending U.S. provisional patent Application No. 60/436,125, filed Dec. 19, 2003 and PCT Application Ser. No. WO 2004/059012, filed Dec. 22, 2003, published Jul. 15, 2004, entitled ASSAY FOR RNase ACTIVITY of Olsen et al., incorporated herein by reference in their entirety. Specifically, the modulatory activity of a carbamate derivative of the present invention may be determined by hybridizing a target nucleic acid to a fluorescently labeled oligonucleotide probe complementary to the target nucleic acid and containing a fluorophor at one terminus and a quenching group at the other terminus to obtain a probe-target hybrid, wherein (i) the unhybridized probe adopts a conformation that places the fluorophor and quencher in such proximity that the quencher quenches the fluorescent signal of the fluorophor, and (ii) the formation of the probe-target hybrid causes sufficient separation of the fluorophor and quencher to reduce quenching of the fluorescent signal of the fluorophor. Next, a first and second sample containing the probe-target hybrid are prepared. The probe-target hybrid of the first sample is then contacted with an RNase H enzyme (such as HIV reverse transcriptase) in an amount sufficient to selectively cleave the target nucleic acid and thereby release the intact probe. The probe-target hybrid of the second sample is also contacted with the RNase H enzyme in an amount sufficient to selectively cleave the target nucleic acid and thereby release the intact probe in the presence of a candidate carbamate derivative of the present invention. The release of the probe in each sample may then be detected by measuring the […] in the fluorescent signal of the fluorophor as compared to the signal of the probe-target hybrid. A comparison of the rate of the decrease in the fluorescent signal of the fluorophor in the two samples is made to determine whether there is a difference in the rate of the decrease in the two samples. […] This method is also useful to identify carbamate derivatives of the present invention, wherein candidate carbamate derivatives are screened for their ability to modulate RNase/HIV reverse transcriptase activity.

[2] = target: T2, HIV Reverse transcriptase (RT) p66/p51, RDDP activity (Human immunodeficiency virus type 1 group M subtype B, UniProt P04585); test: RNA dependent DNA polymerase (RDDP) activity of HIV RT, 33P TTP incorporation with polyrA-oligodT12-18; type: biochemical
T2 construct: […]; purchased Worthington

HIV-1 infection = details: cited from earlier work

Q: Which IC50 [1] does the source give for “2-[(2,4-dimethylphenyl)amino]-2-oxoethyl dibenzyl(phenyl)dithiocarbamate [Example 8]” here?
A: 41.5 µM

Q: And the IC50 ([2]; inhibition of polymerase (RDDP) activity of HIV reverse transcriptase, Table II, read-out: IC50)?
A: > 80 µM

Q: With `Cc1cn([C@H]2C[C@H](N=[N+]=[N-])[C@@H](CO)O2)c(=O)[nH]c1=O` [AZT, zidovudine, reference compound] as the compound, how does the IC50 [2] read?
A: < 0.2 µM

Q: With `Cc1ccc(NC(=O)CSC(=S)N(Cc2ccccc2)Cc2ccccc2)c(C)c1` [Example 1, 2-[(2,4-dimethylphenyl)amino]-2-oxoethyl dibenzyldithiocarbamate] as the compound, how does the IC50 [1] read?
A: 3.1 µM

Q: What about the IC50 [2] of the same compound?
A: 30 µM

Q: Which IC50 [1] does the source give for `O=C(CSC(=S)N(Cc1ccccc1)Cc1ccccc1)Nc1ccc(Cl)c(Cl)c1Cl` [Example 2, 2-oxo-2-[(2,3,4-trichlorophenyl)amino]ethyl dibenzyldithiocarbamate] here?
A: 3.3 µM

Q: And the IC50 [2]?
A: > 80 µM

Q: What does the source list for `N#Cc1cccc(NC(=O)CSC(=S)N(Cc2ccccc2)Cc2ccccc2)c1` [Example 3, 2-[(3-cyanophenyl)amino]-2-oxoethyl dibenzyldithiocarbamate]?
A: IC50 [1]: 4.7 µM; IC50 [2]: > 80 µM

Q: With `O=C(CSC(=S)N(Cc1ccccc1)Cc1ccccc1)Nc1ccc(Cl)cc1Cl` [Example 4, 2-[(2,4-dichlorophenyl)amino]-2-oxoethyl dibenzyldithiocarbamate] as the compound, how does the IC50 [1] read?
A: 5.8 µM

Q: And the IC50 [2]?
A: > 160 µM

Q: Which results are given for `COc1ccc(C)cc1NC(=O)CSC(=S)N(Cc1ccccc1)c1ccccc1` [Example 5, 2-[(2-methoxy-5-methylphenyl)amino]-2-oxoethyl benzyl(phenyl)dithiocarbamate]?
A: IC50 [1]: 8.3 µM; IC50 [2]: > 80 µM

Q: Which results are given for `N#Cc1cccc(NC(=O)CSC(=S)N(Cc2ccccc2)c2ccccc2)c1` [Example 6, 2-[(3-cyanophenyl)amino]-2-oxoethyl benzyl(phenyl)dithiocarbamate]?
A: IC50 [1]: 11.4 µM; IC50 [2]: > 80 µM

Q: Which IC50 [1] does the source give for `O=C(CSC(=S)N(Cc1ccccc1)c1ccccc1)Nc1ccc(Cl)c(Cl)c1Cl` [Example 7, 2-oxo-2-[(2,3,4,-trichlorophenyl)amino]ethyl benzylphenyl dithiocarbamate] here?
A: 26.6 µM

Q: What about the IC50 [2] of the same compound?
A: > 80 µM

Q: What does the source list for `COc1ccc(C)cc1NC(=O)CSC(=S)N(Cc1ccccc1)Cc1ccccc1` [Example 9]?
A: IC50 [1]: 46.2 µM; IC50 [2]: > 80 µM

Q: With `CCN(CC)C(=S)S` [diethyldicarbamate] as the compound, how does the “patients who died during eighteen-month follow up” value (HIV-1 infection; 3 placebo patients had died from AIDS) read?
A: none

Q: And the “patients with AIDS at the end of the study” value (HIV-1 infection; HIV-1 patients Walter Reed stages 2-4, 24 weeks treatment, 6 of the placebo patients had AIDS)?
A: no patient

Q: And the disease progression (HIV-1 infection; HIV-1 patients, group that received the drug vs placebo)?
A: Significantly delayed disease progression
